The source of these data is ChEMBL document CHEMBL1144376, “Novel approach to pro-drugs of lactones: water soluble imidate and ortho-ester derivatives of a furanone-based COX-2 selective inhibitor” (Bioorg Med Chem Lett, 2005).

Where only a bound is given, the exact number is not on record here.

The nature of data set [1]: Plasma level measured at 30 min in sprague-dawley rat upon intravenous administration [dosed in PEG-400 solution]. The format is ADME, organism-based. The note with it: read-out: Plasma level.
Data set [2] in a line: Plasma level of compound 2 measured at 30 min in sprague-dawley rat after 2 mg/kg intravenous administration of compound. The format is ADME, organism-based. Further details: dose 2 mg/kg, route intravenous. The note with it: in vivo, 0.5 h, read-out: Plasma level.
Data set [3] can be described thus: Plasma level measured at 30 min in sprague-dawley rat upon intravenous administration. The note with it: read-out: Plasma level. Type of data set: ADME.
Data set [4] addresses Prostaglandin G/H synthase 1 (Homo sapiens, UniProt P23219). The data set is described as follows: Inhibitory concentration against prostaglandin G/H synthase 1 of human whole blood.

Sequence of Prostaglandin G/H synthase 1 (P23219 whole entry): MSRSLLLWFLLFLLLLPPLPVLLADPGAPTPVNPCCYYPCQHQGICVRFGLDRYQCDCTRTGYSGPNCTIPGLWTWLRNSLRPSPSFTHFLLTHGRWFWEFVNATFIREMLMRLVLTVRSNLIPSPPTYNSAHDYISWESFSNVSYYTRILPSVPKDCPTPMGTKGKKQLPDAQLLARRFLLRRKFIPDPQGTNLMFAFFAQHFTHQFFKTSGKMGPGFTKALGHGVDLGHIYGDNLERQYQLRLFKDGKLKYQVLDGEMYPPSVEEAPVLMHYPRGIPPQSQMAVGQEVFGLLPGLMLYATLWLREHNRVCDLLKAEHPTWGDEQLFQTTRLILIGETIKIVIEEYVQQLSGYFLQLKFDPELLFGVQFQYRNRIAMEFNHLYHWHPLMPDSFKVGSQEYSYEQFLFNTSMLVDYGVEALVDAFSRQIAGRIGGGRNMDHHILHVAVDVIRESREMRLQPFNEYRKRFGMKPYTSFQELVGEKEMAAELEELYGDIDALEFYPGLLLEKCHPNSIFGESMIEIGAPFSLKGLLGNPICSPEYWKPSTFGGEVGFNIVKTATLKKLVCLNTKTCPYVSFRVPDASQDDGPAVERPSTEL

For the compound `CC[C@]1(C)OC2(OCC(CO)O2)C(OC(C)C)=C1c1ccc(S(C)(=O)=O)cc1` (stereo partly specified), the concentration at 0.5 h in data set [1] came to 1400 nM. For the same compound, in data set [2], the concentration amounted to 2800 nM.

For the compound `CC[C@]1(C)OC2(OCC(COC(=O)CCC(=O)[O-])O2)C(OC(C)C)=C1c1ccc(S(C)(=O)=O)cc1.[Na+]` (stereo partly specified), the concentration in data set [2] was 400 nM. In data set [3], the concentration at 0.5 h is below 100 nM.

For orientation: IC50 means the midpoint of a concentration-inhibition curve. On to `CC[C@]1(C)OC(=O)C(OC(C)C)=C1c1ccc(S(C)(=O)=O)cc1`, for which the IC50 in data set [4] was above 86 µM.

As to `CC[C@]1(C)OC2(OCC(C3OC(=O)C(O)=C3O)O2)C(OC(C)C)=C1c1ccc(S(C)(=O)=O)cc1` (stereo partly specified), the concentration in data set [2] was 100 nM.

With `CC[C@]1(C)O/C(=N\[C@@H](CO)C(=O)O)C(OC(C)C)=C1c1ccc(S(C)(=O)=O)cc1`, the concentration in data set [2] is below 100 nM.

For `CC1(O)OC(=O)C(c2ccc(Cl)cc2)=C1c1ccc(S(C)(=O)=O)cc1` (stereo unspecified), the IC50 in data set [4] was above 86 µM.

As for `CC[C@]1(C)O/C(=N\OCC(=O)O)C(OC(C)C)=C1c1ccc(S(C)(=O)=O)cc1`, the concentration in data set [2] was below 100 nM.

In the case of `CC[C@]1(C)OC2(OCC(COP(=O)([O-])OCC[N+](C)(C)C)O2)C(OC(C)C)=C1c1ccc(S(C)(=O)=O)cc1` (stereo partly specified), the concentration in data set [2] came to 200 nM. Further, the concentration at 0.5 h in data set [3] amounted to 200 nM.
